According to ChEMBL document CHEMBL3588828, “A Selective, Cell-Permeable Nonphosphorylated Bicyclic Peptidyl Inhibitor against Peptidyl-Prolyl Isomerase Pin1” (J Med Chem, 2015):
pKd: −log10 of the molar value.

The molecules below were run against Peptidyl-prolyl cis-trans isomerase NIMA-interacting 1 (Homo sapiens, UniProt Q13526, S16A/Y23A) (assay: Binding affinity to N-terminal MBP fused and Texas-red-labeled full-length human Pin1 S16A/Y23A mutant expressed in Escherichia coli assessed as increase in fluorescence anisotropy by spectrofluorimetry). Conditions: read-out: Kd.
Sequence of Peptidyl-prolyl cis-trans isomerase NIMA-interacting 1 (Q13526 whole entry S16A/Y23A, the tested form may be a part): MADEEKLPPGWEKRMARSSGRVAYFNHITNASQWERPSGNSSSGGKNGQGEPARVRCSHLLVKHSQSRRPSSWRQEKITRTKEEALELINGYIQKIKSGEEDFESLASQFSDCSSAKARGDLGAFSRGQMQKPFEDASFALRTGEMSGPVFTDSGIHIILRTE

Structure (SMILES)	pKd
C[C@@H]1NC(=O)[C@H](CCCNC(=N)N)NC(=O)[C@H](Cc2ccc3ccccc3c2)NC(=O)[C@H]2CCCCN2C(=O)[C@@H](CC(=O)O)NC(=O)CN(C)C(=O)[C@@H]2CCCN2C(=O)c2cc3cc(c2)C(=O)NC[C@@H](C(=O)N[C@@H](CCCCN)C(=O)O)NC(=O)[C@H](CCCNC(=N)N)NC(=O)[C@H](CCCNC(=N)N)NC(=O)[C@H](CCCNC(=N)N)NC(=O)[C@H](CCCNC(=N)N)NC(=O)[C@H](Cc2ccc4ccccc4c2)NC(=O)[C@H](Cc2ccccc2)NC(=O)[C@H](CNC3=O)NC1=O	5.59
C[C@@H]1NC(=O)[C@H](CCCNC(=N)N)NC(=O)[C@H](Cc2ccc3ccccc3c2)NC(=O)[C@H]2CCCCN2C(=O)[C@@H]([C@H](C)O)NC(=O)[C@H](Cc2ccc(F)cc2)NC(=O)[C@@H](Cc2ccccc2)NC(=O)c2cc3cc(c2)C(=O)NC[C@H](NC(=O)[C@@H](C)NC1=O)C(=O)N[C@@H](Cc1ccccc1)C(=O)N[C@@H](Cc1ccc2ccccc2c1)C(=O)N[C@@H](CCCNC(=N)N)C(=O)N[C@@H](CCCNC(=N)N)C(=O)N[C@@H](CCCNC(=N)N)C(=O)N[C@@H](CCCNC(=N)N)C(=O)N[C@H](C(=O)N[C@@H](CCCCN)C(=O)O)CNC3=O	6.17
C[C@H]1NC(=O)[C@H](CCCNC(=N)N)NC(=O)[C@H](CCCNC(=N)N)NC(=O)[C@H](Cc2ccc3ccccc3c2)NC(=O)[C@H]2CCCCN2C(=O)[C@@H](CC(=O)O)NC(=O)CN(C)C(=O)[C@@H]2CCCN2C(=O)c2cc3cc(c2)C(=O)NC[C@H](NC1=O)C(=O)N[C@@H](Cc1ccccc1)C(=O)N[C@@H](Cc1ccc2ccccc2c1)C(=O)N[C@@H](CCCNC(=N)N)C(=O)N[C@@H](CCCNC(=N)N)C(=O)N[C@@H](CCCNC(=N)N)C(=O)N[C@@H](CCCNC(=N)N)C(=O)N[C@H](C(=O)N[C@@H](CCCCN)C(=O)O)CNC3=O	6.14
C[C@H]1NC(=O)[C@H](Cc2ccc(O)cc2)NC(=O)[C@H](CCCNC(=N)N)NC(=O)[C@H](Cc2ccc3ccccc3c2)NC(=O)[C@H]2CCCCN2C(=O)[C@@H](CC(=O)O)NC(=O)CN(C)C(=O)[C@@H]2CCCN2C(=O)c2cc3cc(c2)C(=O)NC[C@H](NC1=O)C(=O)N[C@@H](Cc1ccccc1)C(=O)N[C@@H](Cc1ccc2ccccc2c1)C(=O)N[C@@H](CCCNC(=N)N)C(=O)N[C@@H](CCCNC(=N)N)C(=O)N[C@@H](CCCNC(=N)N)C(=O)N[C@@H](CCCNC(=N)N)C(=O)N[C@H](C(=O)N[C@@H](CCCCN)C(=O)O)CNC3=O	5.66
C[C@@H]1NC(=O)[C@H](CCCNC(=N)N)NC(=O)[C@H](Cc2ccc3ccccc3c2)NC(=O)[C@H]2CCCCN2C(=O)[C@@H](CC(=O)O)NC(=O)CN(C)C(=O)[C@@H]2CCCN2C(=O)c2cc3cc(c2)C(=O)NC[C@H](NC(=O)[C@@H](C)NC1=O)C(=O)N[C@@H](Cc1ccccc1)C(=O)N[C@@H](Cc1ccc2ccccc2c1)C(=O)N[C@@H](CCCNC(=N)N)C(=O)N[C@@H](CCCNC(=N)N)C(=O)N[C@@H](CCCNC(=N)N)C(=O)N[C@@H](CCCNC(=N)N)C(=O)N[C@H](C(=O)N[C@@H](CCCCN)C(=O)O)CNC3=O (stereo in doubt; 3)	6.06
C[C@@H]1NC(=O)[C@H](CCCNC(=N)N)NC(=O)[C@H](Cc2ccc3ccccc3c2)NC(=O)[C@H]2CCCCN2C(=O)[C@@H]([C@H](C)O)NC(=O)[C@H](Cc2ccc(F)cc2)NC(=O)[C@@H](Cc2ccccc2)NC(=O)c2cc3cc(c2)C(=O)NC[C@H](NC(=O)[C@@H](Cc2ccccc2)NC1=O)C(=O)N[C@H](CCCNC(=N)N)C(=O)N[C@@H](CCCNC(=N)N)C(=O)N[C@H](CCCNC(=N)N)C(=O)N[C@@H](CCCNC(=N)N)C(=O)N[C@@H](Cc1ccc2ccccc2c1)C(=O)N[C@@H](Cc1ccccc1)C(=O)N[C@H](C(=O)N[C@@H](CCCCN)C(=O)O)CNC3=O	5.51
C[C@@H]1NC(=O)[C@H](CCCNC(=N)N)NC(=O)[C@H](Cc2ccc3ccccc3c2)NC(=O)[C@H]2CCCCN2C(=O)[C@@H](CC(=O)O)NC(=O)CN(C)C(=O)[C@@H]2CCCN2C(=O)c2cc3cc(c2)C(=O)NC[C@H](NC(=O)[C@@H](C)NC(=O)[C@@H](C)NC1=O)C(=O)N[C@@H](Cc1ccccc1)C(=O)N[C@@H](Cc1ccc2ccccc2c1)C(=O)N[C@@H](CCCNC(=N)N)C(=O)N[C@@H](CCCNC(=N)N)C(=O)N[C@@H](CCCNC(=N)N)C(=O)N[C@@H](CCCNC(=N)N)C(=O)N[C@H](C(=O)N[C@@H](CCCCN)C(=O)O)CNC3=O	5.60
C[C@H]1NC(=O)[C@H](CC(=O)O)NC(=O)[C@H](CCCNC(=N)N)NC(=O)[C@H](Cc2ccc3ccccc3c2)NC(=O)[C@H]2CCCCN2C(=O)[C@@H](CC(=O)O)NC(=O)CN(C)C(=O)[C@@H]2CCCN2C(=O)c2cc3cc(c2)C(=O)NC[C@H](NC1=O)C(=O)N[C@@H](Cc1ccccc1)C(=O)N[C@@H](Cc1ccc2ccccc2c1)C(=O)N[C@@H](CCCNC(=N)N)C(=O)N[C@@H](CCCNC(=N)N)C(=O)N[C@@H](CCCNC(=N)N)C(=O)N[C@@H](CCCNC(=N)N)C(=O)N[C@H](C(=O)N[C@@H](CCCCN)C(=O)O)CNC3=O	5.50
C[C@@H]1NC(=O)[C@H](CCCNC(=N)N)NC(=O)[C@H](Cc2ccc3ccccc3c2)NC(=O)[C@H]2CCCCN2C(=O)[C@@H](CC(=O)O)NC(=O)CN(C)C(=O)[C@@H]2CCCN2C(=O)c2cc3cc(c2)C(=O)NC[C@H](NC(=O)[C@@H](C)NC1=O)C(=O)N[C@@H](Cc1ccccc1)C(=O)N[C@@H](Cc1ccc2ccccc2c1)C(=O)N[C@@H](CCCNC(=N)N)C(=O)N[C@@H](CCCNC(=N)N)C(=O)N[C@@H](CCCNC(=N)N)C(=O)N[C@@H](CCCNC(=N)N)C(=O)N[C@H](C(=O)N[C@@H](CCCCN)C(=O)O)CNC3=O (stereo in doubt; 10)	5.47
C[C@@H]1NC(=O)CCNC(=O)[C@H](CCCNC(=N)N)NC(=O)[C@H](Cc2ccc3ccccc3c2)NC(=O)[C@H]2CCCCN2C(=O)[C@@H](CC(=O)O)NC(=O)CN(C)C(=O)[C@@H]2CCCN2C(=O)c2cc3cc(c2)C(=O)NC[C@@H](C(=O)N[C@@H](CCCCN)C(=O)O)NC(=O)[C@H](CCCNC(=N)N)NC(=O)[C@H](CCCNC(=N)N)NC(=O)[C@H](CCCNC(=N)N)NC(=O)[C@H](CCCNC(=N)N)NC(=O)[C@H](Cc2ccc4ccccc4c2)NC(=O)[C@H](Cc2ccccc2)NC(=O)[C@H](CNC3=O)NC1=O	5.76
C[C@@H]1NC(=O)[C@H](CCCNC(=N)N)NC(=O)[C@H](Cc2ccc3ccccc3c2)NC(=O)[C@H]2CCCCN2C(=O)[C@@H]([C@H](C)O)NC(=O)[C@H](Cc2ccc(F)cc2)NC(=O)[C@@H](Cc2ccccc2)NC(=O)c2cc3cc(c2)C(=O)NC[C@@H](C(=O)N[C@@H](CCCCN)C(=O)O)NC(=O)[C@H](CCCNC(=N)N)NC(=O)[C@H](CCCNC(=N)N)NC(=O)[C@H](CCCNC(=N)N)NC(=O)[C@H](CCCNC(=N)N)NC(=O)[C@H](Cc2ccc4ccccc4c2)NC(=O)[C@H](Cc2ccccc2)NC(=O)[C@H](CNC3=O)NC1=O	6.05
C[C@@H]1NC(=O)[C@H](CCCNC(=N)N)NC(=O)[C@H](Cc2ccc3ccccc3c2)NC(=O)[C@H]2CCCCN2C(=O)[C@@H](CC(=O)O)NC(=O)CN(C)C(=O)[C@@H]2CCCN2C(=O)c2cc3cc(c2)C(=O)NC[C@@H](C(=O)N[C@@H](CCCCN)C(=O)O)NC(=O)[C@H](CCCNC(=N)N)NC(=O)[C@H](CCCNC(=N)N)NC(=O)[C@H](CCCNC(=N)N)NC(=O)[C@H](CCCNC(=N)N)NC(=O)[C@H](Cc2ccc4ccccc4c2)NC(=O)[C@H](Cc2ccccc2)NC(=O)[C@H](CNC3=O)NC(=O)CCNC1=O	5.68
C[C@@H]1NC(=O)[C@H](CCCNC(=N)N)NC(=O)[C@H](Cc2ccc3ccccc3c2)NC(=O)[C@H]2CCCCN2C(=O)[C@@H]([C@H](C)O)NC(=O)[C@H](Cc2ccc(F)cc2)NC(=O)[C@@H](Cc2ccccc2)NC(=O)c2cc3cc(c2)C(=O)NC[C@H](NC(=O)[C@@H](Cc2ccccc2)NC1=O)C(=O)N[C@@H](CCCNC(=N)N)C(=O)N[C@@H](CCCNC(=N)N)C(=O)N[C@@H](Cc1ccc2ccccc2c1)C(=O)N[C@@H](Cc1ccccc1)C(=O)N[C@@H](CCCNC(=N)N)C(=O)N[C@@H](CCCNC(=N)N)C(=O)N[C@H](C(=O)N[C@@H](CCCCN)C(=O)O)CNC3=O	5.86
C[C@@H]1NC(=O)[C@H](CCCNC(=N)N)NC(=O)[C@H](Cc2ccc3ccccc3c2)NC(=O)[C@H]2CCCCN2C(=O)[C@@H]([C@H](C)O)NC(=O)[C@H](Cc2cnc[nH]2)NC(=O)[C@@H](Cc2ccccc2)NC(=O)c2cc3cc(c2)C(=O)NC[C@H](NC(=O)[C@@H](C)NC1=O)C(=O)N[C@@H](Cc1ccccc1)C(=O)N[C@@H](Cc1ccc2ccccc2c1)C(=O)N[C@@H](CCCNC(=N)N)C(=O)N[C@@H](CCCNC(=N)N)C(=O)N[C@@H](CCCNC(=N)N)C(=O)N[C@@H](CCCNC(=N)N)C(=O)N[C@H](C(=O)N[C@@H](CCCCN)C(=O)O)CNC3=O	5.77
C[C@@H]1NC(=O)[C@H](CCCNC(=N)N)NC(=O)[C@H](Cc2ccc3ccccc3c2)NC(=O)[C@H]2CCCCN2C(=O)[C@@H]([C@H](C)O)NC(=O)[C@H](Cc2ccc(F)cc2)NC(=O)[C@@H](Cc2ccccc2)NC(=O)c2cc3cc(c2)C(=O)NC[C@H](NC(=O)[C@@H](Cc2ccccc2)NC1=O)C(=O)N[C@@H](CCCNC(=N)N)C(=O)N[C@@H](Cc1ccc2ccccc2c1)C(=O)N[C@@H](CCCNC(=N)N)C(=O)N[C@@H](Cc1ccccc1)C(=O)N[C@@H](CCCNC(=N)N)C(=O)N[C@@H](CCCNC(=N)N)C(=O)N[C@H](C(=O)N[C@@H](CCCCN)C(=O)O)CNC3=O	6.35
CC(C)[C@@H]1NC(=O)[C@H](CCCNC(=N)N)NC(=O)[C@H](Cc2ccc3ccccc3c2)NC(=O)[C@H]2CCCCN2C(=O)[C@@H](CC(=O)O)NC(=O)CN(C)C(=O)[C@@H]2CCCN2C(=O)c2cc3cc(c2)C(=O)NC[C@H](NC(=O)[C@@H](C)NC1=O)C(=O)N[C@@H](Cc1ccccc1)C(=O)N[C@@H](Cc1ccc2ccccc2c1)C(=O)N[C@@H](CCCNC(=N)N)C(=O)N[C@@H](CCCNC(=N)N)C(=O)N[C@@H](CCCNC(=N)N)C(=O)N[C@@H](CCCNC(=N)N)C(=O)N[C@H](C(=O)N[C@@H](CCCCN)C(=O)O)CNC3=O	5.76
